Experimental data: article PMC8477953, “Carnitine is a pharmacological allosteric chaperone of the human lysosomal α-glucosidase” (Journal of Enzyme Inhibition and Medicinal Chemistry, 2021)

Assays:
Assay type in all cases: binding
[1] = molecular target: T1, lysosomal acid α-glucosidase (rhGAA) (Homo sapiens, UniProt P10253); assay: DSF thermal shift at […], pH […]; conditions: read-out: delta_Tm
T1 construct: gene GAA; recombinant human GAA (Myozyme)

[2] = molecular target: T1, lysosomal acid α-glucosidase (rhGAA); assay: DSF thermal shift at […], pH […]; conditions: read-out: delta_Tm; remark: listed apart in the source
[3] = molecular target: T1, lysosomal acid α-glucosidase (rhGAA); assay: DSF (SYPRO Orange) titration at pH […] with Kd from cooperative model fit
[4] = molecular target: T1, lysosomal acid α-glucosidase (rhGAA); assay: DSF thermal shift, dose-dependent; rescue of rhGAA activity at pH […]; conditions: read-out: delta_Tm

OC[C@H]1NC[C@H](O)[C@@H](O)[C@@H]1O [compound 1, DNJ]
ΔTm at 100 µM [1]: 12.1 °C

CC(=O)N[C@@H](CS)C(=O)O [compound 3, N-acetylcysteine]
ΔTm at 10000 µM [2]: 9.6 ± 0.2 °C

C[N+](C)(C)C[C@H](O)CC(=O)[O-] [compound 6, L-carnitine]
Kd [3]: 9.16 ± 1.02 mM

C[N+](C)(C)C[C@@H](O)CC(=O)[O-] [compound 7, D-carnitine]
ΔTm at 5000 µM [4]: 4.9 ± 0.1 °C
